Experiments:
GluN1/GluN2D = GluN1/GluN2D (Rattus norvegicus, UniProt P35439+Q62645); assay type: cell-based
GluN1/GluN2C = GluN1/GluN2C (Rattus norvegicus, UniProt P35439+Q00961); assay type: cell-based
native NMDA receptors = assay type: binding; conditions: native iGluRs, rat synaptosomes
GluN1/GluN2A [1] = molecular target: GluN1/GluN2A (Rattus norvegicus, UniProt P35439+Q00959); assay type: cell-based
GluN1/GluN2A [2] = molecular target: GluN1/GluN2A (Rattus norvegicus, UniProt Q00959); assay type: cell-based; conditions: from Ki values
Chain of GluN1/GluN2A (Rattus norvegicus, UniProt Q00959) (Q00959 23-1464, other chains not shown): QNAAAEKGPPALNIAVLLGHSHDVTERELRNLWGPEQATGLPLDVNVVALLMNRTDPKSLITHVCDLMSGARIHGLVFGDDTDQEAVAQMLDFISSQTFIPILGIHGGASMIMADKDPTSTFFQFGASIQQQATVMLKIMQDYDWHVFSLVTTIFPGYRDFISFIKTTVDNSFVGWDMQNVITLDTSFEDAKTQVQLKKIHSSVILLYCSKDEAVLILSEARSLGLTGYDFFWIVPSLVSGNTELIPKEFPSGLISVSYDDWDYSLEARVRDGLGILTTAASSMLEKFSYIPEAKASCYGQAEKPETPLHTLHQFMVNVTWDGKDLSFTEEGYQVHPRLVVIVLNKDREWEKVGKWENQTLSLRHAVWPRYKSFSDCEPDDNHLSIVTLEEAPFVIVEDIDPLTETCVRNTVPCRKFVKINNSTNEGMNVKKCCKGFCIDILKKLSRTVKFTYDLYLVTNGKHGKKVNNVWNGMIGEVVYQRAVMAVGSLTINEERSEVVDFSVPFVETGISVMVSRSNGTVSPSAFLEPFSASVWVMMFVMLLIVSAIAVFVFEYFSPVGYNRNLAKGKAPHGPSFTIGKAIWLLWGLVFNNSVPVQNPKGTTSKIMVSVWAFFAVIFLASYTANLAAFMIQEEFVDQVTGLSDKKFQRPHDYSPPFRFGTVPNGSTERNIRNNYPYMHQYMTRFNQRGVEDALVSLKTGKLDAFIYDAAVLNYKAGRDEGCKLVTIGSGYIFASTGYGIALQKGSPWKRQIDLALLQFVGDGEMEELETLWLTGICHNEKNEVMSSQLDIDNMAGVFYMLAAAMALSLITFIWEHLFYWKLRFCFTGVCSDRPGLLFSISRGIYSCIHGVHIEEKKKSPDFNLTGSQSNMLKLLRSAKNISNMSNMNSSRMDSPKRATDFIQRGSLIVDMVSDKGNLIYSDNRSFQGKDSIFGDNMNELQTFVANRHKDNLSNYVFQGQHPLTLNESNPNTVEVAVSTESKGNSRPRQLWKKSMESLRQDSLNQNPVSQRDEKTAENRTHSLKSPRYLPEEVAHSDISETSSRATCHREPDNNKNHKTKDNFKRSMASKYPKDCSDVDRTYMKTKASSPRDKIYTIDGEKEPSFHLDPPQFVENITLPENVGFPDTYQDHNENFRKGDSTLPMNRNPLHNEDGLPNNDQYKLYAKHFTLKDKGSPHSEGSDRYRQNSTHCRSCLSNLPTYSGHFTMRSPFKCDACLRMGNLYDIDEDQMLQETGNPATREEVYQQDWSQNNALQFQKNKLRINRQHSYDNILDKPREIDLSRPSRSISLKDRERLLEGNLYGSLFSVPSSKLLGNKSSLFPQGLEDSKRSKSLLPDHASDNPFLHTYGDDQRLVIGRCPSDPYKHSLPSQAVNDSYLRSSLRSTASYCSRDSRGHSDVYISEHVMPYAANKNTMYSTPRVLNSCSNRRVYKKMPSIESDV

GluN1/GluN2B = GluN1/GluN2B (Rattus norvegicus, UniProt P35439+Q00960); assay type: cell-based
Chain of GluN1/GluN2B (Q00960 27-1482, other chains not shown): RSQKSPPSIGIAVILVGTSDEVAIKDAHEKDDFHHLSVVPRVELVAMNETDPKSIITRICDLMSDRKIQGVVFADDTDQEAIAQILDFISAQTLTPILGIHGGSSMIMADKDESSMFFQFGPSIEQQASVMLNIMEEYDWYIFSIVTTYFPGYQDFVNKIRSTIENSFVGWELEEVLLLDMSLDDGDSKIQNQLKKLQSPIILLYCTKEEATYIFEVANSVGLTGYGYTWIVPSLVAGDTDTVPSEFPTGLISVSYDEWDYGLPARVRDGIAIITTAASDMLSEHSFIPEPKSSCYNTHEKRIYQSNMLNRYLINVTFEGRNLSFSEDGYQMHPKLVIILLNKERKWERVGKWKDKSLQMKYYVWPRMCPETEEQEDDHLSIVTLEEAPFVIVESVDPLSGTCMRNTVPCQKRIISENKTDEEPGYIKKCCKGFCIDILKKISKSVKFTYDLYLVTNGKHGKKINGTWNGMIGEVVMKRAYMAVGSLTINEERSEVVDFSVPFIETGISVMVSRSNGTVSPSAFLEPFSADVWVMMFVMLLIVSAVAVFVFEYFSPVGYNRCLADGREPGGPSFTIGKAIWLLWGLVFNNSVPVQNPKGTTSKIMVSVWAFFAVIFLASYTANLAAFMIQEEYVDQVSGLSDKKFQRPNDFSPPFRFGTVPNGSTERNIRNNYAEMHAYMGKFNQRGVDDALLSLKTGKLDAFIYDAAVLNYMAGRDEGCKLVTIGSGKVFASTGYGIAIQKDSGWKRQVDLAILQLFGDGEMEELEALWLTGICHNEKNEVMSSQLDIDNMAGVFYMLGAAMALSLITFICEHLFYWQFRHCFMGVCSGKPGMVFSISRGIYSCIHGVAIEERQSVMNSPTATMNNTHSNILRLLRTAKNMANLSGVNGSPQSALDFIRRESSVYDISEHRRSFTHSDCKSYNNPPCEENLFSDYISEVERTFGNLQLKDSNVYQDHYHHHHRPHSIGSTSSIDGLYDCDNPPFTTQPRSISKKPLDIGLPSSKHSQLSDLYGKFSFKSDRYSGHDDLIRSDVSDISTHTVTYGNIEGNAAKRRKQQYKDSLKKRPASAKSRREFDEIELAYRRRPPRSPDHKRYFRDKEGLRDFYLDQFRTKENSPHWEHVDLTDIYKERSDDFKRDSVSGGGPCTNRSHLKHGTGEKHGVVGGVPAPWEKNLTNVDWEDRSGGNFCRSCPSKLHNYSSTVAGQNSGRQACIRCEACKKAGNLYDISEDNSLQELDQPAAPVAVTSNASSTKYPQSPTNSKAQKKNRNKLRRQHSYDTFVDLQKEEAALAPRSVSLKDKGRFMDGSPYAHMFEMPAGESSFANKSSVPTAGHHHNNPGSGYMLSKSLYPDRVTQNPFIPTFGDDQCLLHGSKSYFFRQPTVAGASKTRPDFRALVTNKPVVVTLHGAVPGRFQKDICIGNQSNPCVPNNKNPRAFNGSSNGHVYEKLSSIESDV

Chain of GluN1/GluN2A (Rattus norvegicus, UniProt P35439+Q00959) (Q00959 23-1464, other chains not shown): as the sequence (Q00959 23-1464, other chains not shown) above

Which Ki (GluN1/GluN2D) does the source give for `Cl.O=C(O)C(Cc1nnn[nH]1)[C@@H]1CCN[C@H]1C(=O)O` (relative stereo) [3q-s3,4, trans-3-(1-Carboxy-2-(1H-tetrazol-5-yl)ethyl)pyrrolidine-2-carboxylic Acid Hydrochloride] here?
The Ki was 62 ± 9 µM.

What about the Ki (GluN1/GluN2C) of the same molecule?
The Ki was 12 ± 1 µM.

And the “pKi NMDA (mean ± SEM, in brackets)” value (native NMDA receptors)?
Its value is 6.61 ± 0.07.

What about the Ki (GluN1/GluN2A [1]) of the same molecule?
The Ki was 0.61 ± 0.02 µM.

What about the “fold preference as antagonist for GluN1/GluN2A over GluN1/GluN2B-D” value (GluN1/GluN2A [2]) of the same molecule?
The value was 4.4−100 fold.

What about the Ki (GluN1/GluN2B) of the same molecule?
Its Ki is 2.7 ± 0.1 µM.

— article PMC6597265 (ACS chemical neuroscience, 2019)
